Data taken from paper PMC8655881 (Cancer research, 2021).

Key:
small intestines = assay: PAS staining of small intestine, 5 daily treatments; type: in vivo; details: 5 daily i.p. treatments; NADI-351 up to 40 mg/kg, DBZ 10 mg/kg
OE33 cells = details: read-out: EC50, OE33 colony formation and other Notch-dependent cell lines; as previously reported; cited from earlier work
hNotch1^ICD = assay: Inducible Notch1^ICD-driven luciferase reporter assay in 293A cells; type: cell-based, human; details: read-out: IC50, inducible Notch1^ICD-responsive luciferase reporter, 24 h, normalized to cell viability

C[C@H](NC(=O)Cc1cc(F)cc(F)c1)C(=O)N[C@@H]1C(=O)N(C)c2ccccc2-c2ccccc21 [DBZ]
GI toxicity / goblet cell metaplasia (PAS staining) (small intestines): induction of goblet cell metaplasia

C[C@H](NC(=O)Cc1cc(F)cc(F)c1)C(=O)N[C@H](C(=O)OC(C)(C)C)c1ccccc1 [DAPT]
EC50 (OE33 cells): 10 to 15 µM

CCOC(=O)COc1ccc(/C=C2\SC(=S)NC2=O)cc1OC [IMR-1]
EC50 (OE33 cells): 10 to 15 µM | IC50 (hNotch1^ICD): > 40 µM
